This note sets out measurements from patent US20250326792A1, “A FORMULATION FOR TREATMENT OF PIGMENTARY DISORDERS” (priority 2022, published 2025).

One test relates to NHEM cells. Nature of the test: Melanin content assay in NHEM cells. Type of test: cell-based, Human. The conditions noted are these: NHEM CELLS. The protocol: (§1) Culture and maintenance of cell lines: B16F10 cells were cultured in RPMI containing 10% fetal bovine serum, 100 units per millilitre (U/mL) penicillin, 0.1 mg/mL streptomycin, and 0.25 microgram per millilitre (μg/mL) amphotericin B at 37 degrees Celsius in a humidified 95% air/5% CO2 incubator. Drug treatment was done 24 hours after seeding. Cells were harvested 48 hours later and melanin content and tyrosinase activity determined in triplicate. NHEM cells were cultured in DMEM containing 10% fetal bovine serum, 100 units per milliliter (U/mL) penicillin, 0.1 mg/mL streptomycin, and 0.25 microgram per millilitre (μg/mL) amphotericin B at 37 degrees Celsius in a humidified 95% air/5% CO2 incubator. Drug treatment was done 24 hours after seeding. Cells were harvested 48 hours later and melanin content and tyrosinase activity determined in triplicate.
(§2) IS103 was dissolved in water for injection or DMSO to prepare stock solution of about 50 mg/ml. The stock solution was used for preparation of subsequent dilutions in solvent to achieve working dilutions for treatment ranging 0.1 μg/ml to 1000 μg/ml.
(§3) Cells were seeded in a 6-well plate (2×10^4 cells/well) and incubated overnight to allow the cells to adhere. After treating with various test samples for 4 or 5 days, cells were washed with phosphate-buffered saline (PBS), trypsinized, counted, and then lysed in 1 N NaOH at 100° C. for about 1 hour. The melanin content in each sample was calculated by comparison of absorbance at 400 nm of unknown samples with a standard curve obtained using synthetic melanin. IS103 enhances melanin synthesis in a dose dependent manner without significant toxicity. B16F10 and NHEM cells were treated with different concentrations of IS103 ranging from 0.1 to 1000 μg/ml and analysed melanin contents in cells. It was observed that IS103 was able to enhance pigmentation of B16F10 and NHEM cells in a dose-dependent manner (Table 18 and FIGS. 4 and 5). […] To assess the toxicity of the IS103 peptide, cell viability was analyzed by MTT assay.

The subject of test [1] is Tyrosinase. The experiment in a line: Tyrosinase activity assay (L-DOPA) in NHEM cells. Type of test: cell-based, Human. The conditions noted are these: for increase in Tyrosinase activity when compared to control: NHEM cells, positive control. As for the experimental part: as §1, §2
(§4) Tyrosinase activity was determined using L-DOPA as a substrate. Briefly, B16F10 and NHEM cells were seeded in a 6-well plate (2×10^4 cells/well) and incubated for overnight. The cells were then treated with or without the test compounds for 46 hours and were washed twice with ice cold PBS and extracted by sonication in 100 μl of 0.1M Tris-HCl buffer (pH 7.2) containing 1% Nonidet P-40, 0.01% SDS, 100 μM phenyl methyl sulfonyl fluoride, and 1 μg/ml aprotinin and then centrifuged at 10,000 g for about 10 minutes at 4° C. The supernatants collected were used for enzyme assay and its protein content was estimated by method of Bradford using BSA as standard. Samples of cell extract supernatant were incubated in duplicate for 1 hour at 37° C. in 1 ml of 0.1M sodium phosphate buffer (pH 7.4) containing 0.1% L-DOPA. The absorbance was then monitored at 450 nm and compared with purified mushroom tyrosinase (Sigma). The standard curve was prepared limiting linearity within the range of experimental value.

The test system of another test is B16F10 cells. Nature of the test: Melanin content assay in B16F10 cells. The class given is cell-based. The conditions noted are these: B16F10 CELLS; 100 μM. The protocol: as §1, §2
as §3, with “IS103 enhances melanin synthesis in a dose dependent manner without significant toxicity.” left out, “cells.” for “cells. It was observed that IS103 was able to enhance pigmentation of B16F10 and NHEM cells in a dose-dependent manner (Table 18 and FIGS. 4 and 5).”

The test system of test [2] is Tyrosinase. The experiment in a line: Tyrosinase activity assay (L-DOPA) in B16F10 cells. Type of test: cell-based. The conditions noted are these: for increase in Tyrosinase activity when compared to control: B16F10 cells, positive control. As for the experimental part: as §1, §2, §4
The mark [3] stands for this setting: TYROSINASE ACTIVITY table, NHEM CELLS, 100 μM.
Where [4] appears, read: TYROSINASE ACTIVITY table, B16F10 CELLS, 100 μM.

As for `CC(C)Cn1c(=O)n(C)c(=O)c2[nH]cnc21` [IBMX, 3-isobutyl-1-methylxanthine, reference compound], the “% increase in melanin content compared to control” value was found to be 160% in the test with NHEM cells (100 μM) and 180% in the test with B16F10 cells. Also, the “Fold change in melanin content” value with NHEM cells (100 μM) is on record as 2.6 ± 0.20; with B16F10 cells, 2.8 ± 0.20. In addition, the entries for the “increase in Tyrosinase activity when compared to control” value with Tyrosinase [1] (100 μM) and with Tyrosinase [2] (100 μM) were 56% and 59%, respectively. Further, the figures for the “% increase in tyrosinase activity compared to control” value with Tyrosinase [1] (setting [3]) and with Tyrosinase [2] (setting [4]) were 56% and 59%, respectively. The compound also showed a Tyrosinase activity in the test with Tyrosinase [1] (setting [3]) of 70.3 ± 4.20. In addition, the “Change in tyrosinase activity” value in the test on Tyrosinase [2] (setting [4]) was found to be 74.0 ± 5.10.
On to “α-Melanocyte Stimulating Hormone [α-MSH, reference compound]”, for which, in the test on NHEM cells (100 nM), the “% increase in melanin content compared to control” value is on record as 190%. Moreover, the figures for the “increase in Tyrosinase activity when compared to control” value in the test with Tyrosinase [1] (100 nM) and in the test on Tyrosinase [2] (100 nM) were 56.33% and 57.33%, respectively. Further, the “% increase in tyrosinase activity compared to control” value in the test with Tyrosinase [1] (TYROSINASE ACTIVITY table, NHEM CELLS, 100 nM) is 56.33%; in the test with Tyrosinase [2] (TYROSINASE ACTIVITY table, B16F10 CELLS, 100 nM), 57.33%.
